Among the data in patent publication US20040044037A1, “Amidino-urea serotonin receptor ligands and compositions, their pharmaceutical uses, and methods for their snythesis” (priority 2003, published 2004) are Ki values, retold here.

For one experiment, the target named is T1, human 5HT2a receptors (Homo sapiens, UniProt P28223).
T1 construct: expressed in transfected cells; host or cells: CHO K1 cells
In words: Competition radioligand binding, 5-HT2A. The conditions noted are these: [3H]Ketanserin; membranes of CHO K1 cells; read-out: Ki 5-HT2A. How it is done: (§1) Cells and Membrane Preparation: HEK 293 cells stably expressing human 5-HT7B (h5-HT7b) receptors were grown in Dulbecco's Modified Eagle's Medium (DMEM; Gibco) without sodium pyruvate and containing 4.5 g/L glucose, L-glutamine/penicillin-streptomycin (Gemini), 10% fetal bovine serum and 250 mg/l of the antibiotic, G418 (Geneticin) as previously described (Jasper, J. R., Kosaka, A., To, Z. P., Chang, D. J. and Eglen, R. M. (1997) Cloning, expression and pharmacology of a truncated splice variant of the human 5-ht7 receptor (h5-ht7b). Br. J. Pharmacol. 122(1):126-132.). Cell pellets were homogenized in approximately 50 mL of homogenization buffer (buffer A) containing: 50 mM Tris (pH 7.4), 2 mM EGTA, 0.32 M sucrose, 10 μM PMSF, 1 μg/mL leupeptin, 5 μg/mL Pepstatin A, and 5 μg/mL aprotinin using an UltraTurax homogenizer (Tekmar Company, Cincinnati, Ohio) at 80% maximum setting three times for 10 sec. Cell pellets were centrifuged at 4° C. at 1,500×g for 10 min in a Beckman GS-6R centrifuge. Pellets were resuspended in buffer A, homogenized and centrifuged as described above. Pooled supernatants were transferred to centrifuge bottles and centrifuged at 4° C. at 20,000×g for 30 min in a Beckman J2-HS centrifuge. Cell pellets were resuspended in buffer A and were centrifuged at 4° C. at 20,000×g for 30 min. Cell pellets were resuspended in buffer A and stored at −70° C. in aliquots of 2.5 mg/mL total membrane protein. Total membrane protein was assessed utilizing a BCA kit (Pierce; Rockford, Ill.). Membranes containing human 5-HT1a or 5HT2a receptors expressed in CHO K1 cells were prepared as described above.
(§2) Radioligand Binding Assays: For 5-HT7 saturation binding experiments, HEK-293 cell membranes expressing h5-HT7 receptors (5-10 μg membrane protein/well) were incubated in duplicate with [^3H]5-CT (approximately 0.2 nM) in binding assay buffer containing: 50 mM HEPES (pH 7.4), 0.5 mM EDTA, 10 mM MgCl2, 10 μM pargyline to inhibit monoamine oxidase activity, and 0.1% sodium ascorbate, in a final volume of 200 μL in 96-well polypropylene plates for 2 hours at 37° C. Nonspecific binding was determined by incubating membranes with 1 μM 5-HT. All radioligand binding assays were stopped by rapid filtration onto 96-well GF/C filter plates (Packard) soaked in 0.1% polyethylenimine. Filters were washed three times with ice-cold phosphate-buffered saline (PBS) wash buffer containing 50 mM NaPO4 (pH 7.4), 0.9% NaCl, 2 mM MgCl2 and 0.02% NaN3. The filters were then counted using liquid scintillation in a Packard Topcount scintillation counter.
Data Analysis: Radioligand binding experiments were analyzed with Prism™ (Graphpad, San Diego, Calif.), a computer graphics and statistics program. IC50 values and Hill slopes for compounds were generated by nonlinear regression using Prism™. Values for Ki calculated from IC50 values by the Cheng and Prussoff equation (Cheng, Y. and Prusoff, W. H., (1973), “Relationship between the inhibition constant (Ki) and the concentration of inhibitor which causes 50 per cent inhibition (I50) of an enzymatic reaction.” Biochemical Pharmacol. 22:3099-3108).

The target of experiment [1] is T2, human D2S dopamine (hD2S-DA) receptors (Homo sapiens, UniProt P14416).
T2 construct: purchased Receptor Biology, Inc. (Beltsville, Md.); host or cells: A9 L cells
T2 sequence (P14416 1-414 isoform P14416-2): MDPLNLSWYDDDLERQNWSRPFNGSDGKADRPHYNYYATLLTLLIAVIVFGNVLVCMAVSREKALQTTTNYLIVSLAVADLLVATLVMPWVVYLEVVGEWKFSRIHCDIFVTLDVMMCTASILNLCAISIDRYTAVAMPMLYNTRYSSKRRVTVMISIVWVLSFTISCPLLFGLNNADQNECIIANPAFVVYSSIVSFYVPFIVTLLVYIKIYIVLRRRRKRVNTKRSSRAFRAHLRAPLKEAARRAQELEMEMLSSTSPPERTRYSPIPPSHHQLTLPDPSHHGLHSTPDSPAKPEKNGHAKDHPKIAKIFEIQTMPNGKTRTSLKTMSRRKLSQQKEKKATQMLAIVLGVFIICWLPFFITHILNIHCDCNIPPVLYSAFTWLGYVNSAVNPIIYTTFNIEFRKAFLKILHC
Kind of experiment: Competition radioligand binding, hD2S dopamine. To be noted: [3H]Spiperone; membranes of A9 L cells; read-out: Ki D2.

The target of experiment [2] is T3, human 5-HT7B (h5-HT7b) receptors (Homo sapiens, UniProt P34969).
T3 construct: expressed in transfected cells
T3 sequence (P34969 1-432 limits assumed): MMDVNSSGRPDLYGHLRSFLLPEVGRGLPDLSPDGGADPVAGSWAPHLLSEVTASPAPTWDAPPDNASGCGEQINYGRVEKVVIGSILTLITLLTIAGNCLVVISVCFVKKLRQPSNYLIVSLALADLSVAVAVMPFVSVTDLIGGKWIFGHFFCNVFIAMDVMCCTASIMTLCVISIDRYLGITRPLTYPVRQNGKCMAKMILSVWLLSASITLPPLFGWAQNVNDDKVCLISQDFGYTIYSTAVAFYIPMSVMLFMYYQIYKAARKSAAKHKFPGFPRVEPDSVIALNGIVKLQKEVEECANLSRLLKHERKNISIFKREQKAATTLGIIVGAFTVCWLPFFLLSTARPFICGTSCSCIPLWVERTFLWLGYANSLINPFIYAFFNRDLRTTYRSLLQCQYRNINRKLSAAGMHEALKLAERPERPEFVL
Kind of experiment: Competition radioligand binding, h5-HT7b. The conditions noted are these: [3H]5-CT; membranes of HEK 293 cells; read-out: Ki 5-HT7.
Description: The compounds of the invention interact with 5-HT receptors and show selectivity for 5-HT receptors. The 5-HT receptor binding properties of the compounds are identified by competitive radioligand binding assays wherein membranes prepared from transfected cells expressing the 5-HT receptor subtype of interest. “Binding constants” refers herein to Ki values measured by inhibition of the binding of radiolabelled ligands that are selective for the 5-HT receptor type being studied. For 5-HT7 receptors, Ki values are determined by measuring the inhibition of 5-carboxamidotryptamine (5-CT) binding, wherein 5-HT7 receptors were incubated with the radiolabelled high affinity ligand, 5-carboxamidotryptamine ([^3H]5-CT), in the presence and absence of the compounds of the invention, at varying concentrations. The compounds of the invention have high binding affinity for serotonin receptors as measured by dissociation constant Ki. […] “Selectivity” for receptor type, in the context of this invention, refers to the ratio of binding constants for the two receptor types being compared. […] The compounds of the present invention preferably show selectivity for 5-HT7 receptors over other serotonin receptor subtypes of greater than about 100. The compounds of the present invention also preferably show selectivity for 5-HT7 receptors over other receptor types, such as dopamine D2, of greater than about 100.
as §1
as §2, with “counter. […]” for “counter.”

In experiment [3] the target is T4, human 5-HT6 (h5-HT6) receptors (Homo sapiens, UniProt P50406).
T4 construct: purchased Receptor Biology, Inc. (Beltsville, Md.); host or cells: HEK-293 cells
T4 sequence (P50406 whole entry): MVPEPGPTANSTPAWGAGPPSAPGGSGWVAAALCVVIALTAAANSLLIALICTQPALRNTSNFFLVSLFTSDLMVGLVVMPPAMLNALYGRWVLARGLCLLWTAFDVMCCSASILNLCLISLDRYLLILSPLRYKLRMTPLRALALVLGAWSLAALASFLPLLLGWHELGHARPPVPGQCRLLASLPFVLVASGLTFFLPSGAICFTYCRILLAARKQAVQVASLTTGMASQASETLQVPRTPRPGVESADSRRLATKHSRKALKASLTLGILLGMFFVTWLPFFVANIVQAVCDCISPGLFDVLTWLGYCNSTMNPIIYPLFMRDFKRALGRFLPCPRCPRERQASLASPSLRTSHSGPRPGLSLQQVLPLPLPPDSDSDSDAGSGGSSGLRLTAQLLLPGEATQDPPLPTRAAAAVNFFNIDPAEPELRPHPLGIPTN
Kind of experiment: Competition radioligand binding, h5-HT6. The conditions noted are these: [3H]LSD; membranes of HEK-293 cells; read-out: Ki 5-HT6.

T1 sequence (P28223 whole entry): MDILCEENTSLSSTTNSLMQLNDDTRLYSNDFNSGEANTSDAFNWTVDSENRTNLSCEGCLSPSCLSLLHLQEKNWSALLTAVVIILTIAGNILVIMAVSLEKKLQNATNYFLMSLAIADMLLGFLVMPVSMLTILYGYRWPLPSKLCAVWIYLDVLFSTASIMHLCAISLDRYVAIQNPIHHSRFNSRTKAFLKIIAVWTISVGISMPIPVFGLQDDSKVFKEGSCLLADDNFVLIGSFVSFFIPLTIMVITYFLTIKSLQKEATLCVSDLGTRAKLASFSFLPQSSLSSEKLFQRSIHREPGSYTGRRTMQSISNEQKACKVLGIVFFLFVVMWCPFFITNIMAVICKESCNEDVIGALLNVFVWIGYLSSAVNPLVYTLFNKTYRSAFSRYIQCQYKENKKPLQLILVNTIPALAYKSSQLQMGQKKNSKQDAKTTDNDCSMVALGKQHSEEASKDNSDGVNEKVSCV

Turning to `N=C(NCc1cccc2ccccc12)NC(=O)N[C@H](CO)c1ccccc1` [Example 15, 1-({[[({[(1S)-2-Hydroxy-1-phenylethyl]amino}carbonyl)amino](imino)methyl]amino}methyl)naphthalene], the Ki at human 5HT2a receptors amounted to 0.4 nM; in experiment [1], 290 nM; in experiment [2], 2.6 nM; in experiment [3] it was 170 nM.
In the case of `N=C(NCc1cccc2ccccc12)NC(=O)NCc1cccnc1` [Example 18, 3-({[({Imino[(1-naphthylmethyl)amino]methyl}amino)carbonyl]amino}methyl)pyridine], the Ki was determined as 0.43 nM at human 5HT2a receptors, 1030 nM in experiment [1], 17 nM in experiment [2] and 350 nM in experiment [3].
In the case of `COCCCNC(=O)NC(=N)NCc1cccc2ccccc12` [Example 38, 1-(3-Imino-5-oxo-10-oxa-2,4,6-triazaundec-1-yl)naphthalene], the results for the Ki in experiment [1], in experiment [2] and in experiment [3] were over 2500 nM, 14 nM and 1180 nM, respectively.
Regarding `N=C(NCc1cccc2ccccc12)NC(=O)NCCc1c[nH]c2ccc(Cl)cc12` [Example 39, 5-Chloro-3-(2-{[({imino[(1-naphthylmethyl)amino]methyl}amino)carbonyl]amino}ethyl)-1H-indole], the values for the Ki in experiment [1], in experiment [2] and in experiment [3] were 400 nM, 120 nM and 1180 nM, respectively.
Regarding `N=C(NCc1cccc2ccccc12)NC(=O)N[C@H]1c2ccccc2C[C@H]1O` [Example 42, 1-({[[({[(1S,2R)-2-Hydroxy-2,3-dihydro-1H-inden-1-yl]amino}carbonyl)amino](imino)methyl]amino}methyl)naphthalene], the results for the inhibition constant (Ki) in experiment [1], in experiment [2] and in experiment [3] were 1250 nM, 22 nM and 1740 nM, respectively.
Regarding `N=C(NCc1cccc2ccccc12)NC(=O)NCc1c(N)cccc1F` [Example 44, 1-({[({[(2-Amino-6-fluorobenzyl)amino]carbonyl}amino)(imino)methyl]amino}methyl)naphthalene], the Ki is 890 nM in experiment [1], 33 nM in experiment [2] and 500 nM in experiment [3].
Take `N=C(NCc1cccc2ccccc12)NC(=O)NCCSCc1c(F)cccc1Cl` [Example 47, 1-[10-(2-Chloro-6-fluorophenyl)-3-imino-5-oxo-9-thia-2,4,6-triazadec-1-yl]naphthalene]: the Ki in experiment [1] is 860 nM; in experiment [2], 120 nM; in experiment [3], 530 nM.
Turning to `CC(C)(CO)CNC(=O)NC(=N)NCc1cccc2ccccc12` [Example 48, 1-({[({[(3-Hydroxy-2,2-dimethylpropyl)amino]carbonyl}amino)(imino)methyl]amino}methyl)naphthalene], the results for the inhibitory constant (Ki) in experiment [1], in experiment [2] and in experiment [3] were 1700 nM, 9.8 nM and 2620 nM, respectively.
Take `COc1cc(CNC(=O)NC(=N)NCc2cccc3ccccc23)cc(OC)c1OC` [Example 49, 1-({[Imino({[(3,4,5-trimethoxybenzyl)amino]carbonyl}amino)methyl]amino}methyl)naphthalene]: the figures for the Ki in experiment [1], in experiment [2] and in experiment [3] were 830 nM, 30 nM and 1130 nM, respectively.
`N=C(NCc1cccc2ccccc12)NC(=O)NCC1CCN(Cc2cccc(C(F)(F)F)c2)CC1` [Example 57, 4-({[({Imino[(1-naphthylmethyl)amino]methyl}amino)carbonyl]amino}methyl)-1-[3-(trifluoromethyl)benzyl]piperidine]: the Ki at human 5HT2a receptors was 130 nM; in experiment [1], 1570 nM; in experiment [2], 59 nM.
The matching figures for `N#Cc1ccc(CN2CCC(CNC(=O)NC(=N)NCc3cccc4ccccc34)CC2)cc1` [Example 59, 1-(4-Cyanobenzyl)-4-({[({imino[(1-naphthylmethyl)amino]methyl}amino)carbonyl]amino}methyl)piperidine]: 2.6 nM, over 2500 nM and 85 nM.
For `Cc1cc(C)cc(CN2CCC(CNC(=O)NC(=N)NCc3cccc4ccccc34)CC2)c1` [Example 62, 1-(3,5-Dimethylbenzyl)4-({[({imino[(1-naphthylmethyl)amino]methyl}amino)carbonyl]amino}methyl)piperidine] the same measures were 9.8 nM, 490 nM and 22 nM.
`N=C(NCc1cccc2ccccc12)NC(=O)NCC1CCN(Cc2noc(-c3ccccc3)n2)CC1` [Example 64, 4-({[({Imino[(1-naphthylmethyl)amino]methyl}amino)carbonyl]amino}methyl)-1-[(5-phenyl-1,2,4-oxadiazol-3-yl)methyl]piperidine]: the Ki at human 5HT2a receptors is 4.2 nM; in experiment [1], over 2500 nM; in experiment [2], 91 nM.
Turning to `N=C(NCc1cccc2ccccc12)NC(=O)NCC1CCN(Cc2cccc3ccccc23)CC1` [Example 69, 4-({[({Imino[(1-naphthylmethyl)amino]methyl}amino)carbonyl]amino}methyl)-1-(1-naphthylmethyl)piperidine], the Ki was found to be 11 nM on human 5HT2a receptors, 720 nM in experiment [1] and 27 nM in experiment [2].

One may read the Ki as a measure of affinity in units of concentration, obtained from inhibition or displacement.
